Common to all, as to assay: growth of human tumour cells (NCI), 48 h
The test system of experiment [1] is SK-OV-3.
Experiment [2] relates to HT-29.
Experiment [3] deals with K562.
For experiment [4], the system named is U-251.
Experiment [5] relates to SK-MEL-5.
For experiment [6], the system named is CAKI-1.
The test system of experiment [7] is SF-268.
Experiment [8] relates to SW-620.
The test system of experiment [9] is IGROV-1.
The test system of experiment [10] is PC-3.
The subject of experiment [11] is SK-MEL-2.
For experiment [12], the system named is RPMI-8226.
Experiment [13] concerns M19-MEL.
Experiment [14] relates to M14.
In experiment [15] the test system is KM12.
For experiment [16], the system named is COLO 205.
The test system of experiment [17] is TK-10.
For experiment [18], the system named is RXF 393.
Experiment [19] concerns MOLT-4.
Experiment [20] relates to MDA-MB-435.

SMILES strings stand for the structures.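 The compound was tested at five concentrations on cells cultured in 96-well plates, with a 48-hour exposure period. Here, GI50 denotes the concentration required for 50% inhibition of growth.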 Active and inactive are the calls of the source. Cut-off read from the data, not from the text of the source: active = GI50 up to about 1.1 µM and inactive = higher.

Consider `CC(=O)OC12COC1CC(O)C1(C)C(=O)C(O)C3=C(C)C(O)CC(O)(C(OC(=O)c4ccccc4)C21)C3(C)C` (configuration not stated), for which the GI50 in experiment [1] was 2.31 µM (inactive); in experiment [2], 1.31 µM (inactive); in experiment [3] it was 1.58 µM (inactive); in experiment [4], 0.65 µM (active); in experiment [5] it was 3.44 µM (inactive); in experiment [6] it was > 96.2 µM (inactive). For the same compound, the GI50 in experiment [7] is 3.41 µM (inactive); in experiment [8], 0.989 µM (active); in [9], 7.23 µM (inactive); in experiment [10], 3.03 µM (inactive); in experiment [11], 1.55 µM (inactive); in [12] it was 1.25 µM (inactive). The GI50 in [13] was 7.67 µM (inactive); in experiment [14] it was 5.94 µM (inactive); in experiment [15], 0.839 µM (active); in experiment [16], 1.14 µM (inactive); in [17], > 74 µM (inactive); in experiment [18] it was > 65.6 µM (inactive). Also, the GI50 in experiment [19] is 6.7 µM (inactive); in experiment [20], 0.408 µM (active).

On to `O=C1C=C(c2c(O)ccc3ccccc23)c2ccccc2C1=O`, for which the GI50 in experiment [1] is 10.7 µM (inactive); in experiment [2], 6.97 µM (inactive); in experiment [3], 3.08 µM (inactive); in [4], 2.21 µM (inactive); in experiment [5], 2.51 µM (inactive); in [6], 7.93 µM (inactive). In addition, the GI50 is 6.12 µM (inactive) in [7]; 2.09 µM (inactive) in experiment [8]; 3.3 µM (inactive) in [9]; 2.12 µM (inactive) in experiment [10]; 4.68 µM (inactive) in experiment [11]; 2.35 µM (inactive) in experiment [12]. For the same compound, the GI50 in experiment [13] was 1.64 µM (inactive); in [14], 4.69 µM (inactive); in [15], 3.77 µM (inactive); in experiment [16] it was 6.76 µM (inactive); in experiment [17], 12.1 µM (inactive); in experiment [18], 2.06 µM (inactive). The figures for the GI50 in [19] and in [20] were 1.72 µM (inactive) and 3.01 µM (inactive), respectively.

On to `CCOC(=O)C1=C(O)C(=O)c2ccccc2C1=O`, for which the GI50 is > 100 µM (inactive) in experiment [1]; > 100 µM (inactive) in experiment [2]; > 100 µM (inactive) in [3]; > 100 µM (inactive) in experiment [4]; 46.5 µM (inactive) in experiment [5]; > 100 µM (inactive) in experiment [6]. Also, the GI50 in experiment [7] was > 100 µM (inactive); in experiment [8] it was > 100 µM (inactive); in experiment [9] it was > 100 µM (inactive); in experiment [11] it was > 100 µM (inactive); in experiment [12] it was > 100 µM (inactive); in experiment [13], 22.2 µM (inactive). Moreover, the GI50 in [14], in [15], in experiment [16], in experiment [17], in [18] and in experiment [19] was > 100 µM (inactive) throughout.

Regarding `O=C1C(c2ccccc2)=C(c2ccccc2)C(c2ccccc2)/C1=C1\C(=O)C(c2ccccc2)=C(c2ccccc2)C1c1ccccc1` (configuration not stated), the GI50 in experiment [1], in experiment [2], in experiment [4], in experiment [5], in experiment [6] and in experiment [7] was > 100 µM (inactive) throughout. Further, the GI50 in [8] is > 100 µM (inactive); in [9], > 100 µM (inactive); in experiment [11] it was > 100 µM (inactive); in experiment [12], > 100 µM (inactive); in [13], > 100 µM (inactive); in [14] it was 41.9 µM (inactive). Further, the GI50 in experiment [15], in [16], in [17], in experiment [18] and in experiment [19] was > 100 µM (inactive) in each case.

For `C/C=C/C(=O)[C@@H](O)C(C)C`, the GI50 in experiment [1], in experiment [2], in [3], in [4], in [5] and in experiment [6] was > 100 µM (inactive) in each case. The GI50 in [7], in experiment [8], in [9], in experiment [11], in [12] and in experiment [13] was > 100 µM (inactive) each time. The GI50 in experiment [15], in [16], in experiment [17], in experiment [18] and in experiment [19] was > 100 µM (inactive) each time.

In the case of `COC(=O)/C(=N\Nc1nnc(C)n1N)C(C#N)c1ccccc1` (configuration not stated), the GI50 in experiment [1] is > 100 µM (inactive); in experiment [2], > 63.1 µM (inactive); in experiment [3], > 100 µM (inactive); in [4], > 77.4 µM (inactive); in experiment [5], 92.3 µM (inactive); in experiment [6], > 100 µM (inactive). For the same compound, the GI50 in experiment [7] was > 100 µM (inactive); in experiment [8] it was > 86.5 µM (inactive); in experiment [9] it was > 54.8 µM (inactive); in experiment [10], > 100 µM (inactive); in experiment [11], > 100 µM (inactive); in experiment [12] it was 99.5 µM (inactive). In addition, the GI50 in experiment [13] is 18.5 µM (inactive); in [14], > 74.6 µM (inactive); in experiment [15], > 100 µM (inactive); in [16], > 63.2 µM (inactive); in [17], > 100 µM (inactive); in experiment [18], > 100 µM (inactive). Besides, the GI50 in experiment [19] is > 100 µM (inactive); in [20], 17.3 µM (inactive).

Consider `O=C1C=CC(=O)C12CCc1ccccc12`, for which the GI50 is > 100 µM (inactive) in experiment [1]; > 95.3 µM (inactive) in [2]; 36.4 µM (inactive) in experiment [3]; > 100 µM (inactive) in experiment [4]; > 100 µM (inactive) in experiment [5]; > 31.6 µM (inactive) in experiment [6]. The GI50 in experiment [7] is > 100 µM (inactive); in experiment [8], 64.7 µM (inactive); in [9] it was > 100 µM (inactive); in [11], > 100 µM (inactive); in [12] it was 12.1 µM (inactive); in experiment [13], > 100 µM (inactive). The GI50 is > 100 µM (inactive) in experiment [14]; > 100 µM (inactive) in experiment [15]; 57.5 µM (inactive) in experiment [16]; > 100 µM (inactive) in experiment [17]; > 94.6 µM (inactive) in experiment [18]; > 44.3 µM (inactive) in experiment [19].

On to `CC(=O)Nc1ccc(SC#N)c2c(NC(C)=O)cccc12`, for which the GI50 was > 100 µM (inactive) in experiment [1]; > 100 µM (inactive) in experiment [2]; 34 µM (inactive) in experiment [3]; > 100 µM (inactive) in experiment [4]; > 100 µM (inactive) in [5]; > 65 µM (inactive) in [6]. Also, the GI50 in [7] is 98.4 µM (inactive); in experiment [8] it was 43.1 µM (inactive); in experiment [9] it was > 100 µM (inactive); in experiment [11], > 100 µM (inactive); in experiment [12] it was 24.4 µM (inactive); in experiment [13], > 100 µM (inactive). In addition, the GI50 in experiment [14] is > 100 µM (inactive); in [15], > 66.8 µM (inactive); in [16] it was > 68.4 µM (inactive); in experiment [17] it was > 100 µM (inactive); in experiment [18], > 100 µM (inactive); in experiment [19], 28.7 µM (inactive).

`Cc1cccc(C)c1N1C(=O)C(=O)C(c2nc3ccccc3s2)/C(=N/NC(=O)c2ccccc2O)C1=O` (configuration not stated): the GI50 is 50.7 µM (inactive) in experiment [1]; 51.5 µM (inactive) in [2]; 3.8 µM (inactive) in experiment [3]; 20.6 µM (inactive) in [4]; 16.2 µM (inactive) in experiment [5]; 3.07 µM (inactive) in experiment [6]. Besides, the GI50 is 6.75 µM (inactive) in experiment [7]; 22.4 µM (inactive) in [8]; 3.26 µM (inactive) in [9]; 11 µM (inactive) in [11]; 12.7 µM (inactive) in experiment [12]; 13.1 µM (inactive) in experiment [13]. Further, the GI50 in [14] was 10.1 µM (inactive); in experiment [15], 35.2 µM (inactive); in experiment [16], 27.4 µM (inactive); in [17], 25.1 µM (inactive); in experiment [18], 3.09 µM (inactive); in experiment [19], 8.89 µM (inactive).

For the compound `CC1CCCC2(O1)OC1CC(=O)OC1C1=C2C(=O)c2ccccc2C1=O` (configuration not stated), the GI50 was 16.4 µM (inactive) in experiment [1]; 2.42 µM (inactive) in experiment [2]; 0.63 µM (active) in experiment [3]; 18.2 µM (inactive) in [4]; 2.06 µM (inactive) in experiment [5]; 2.84 µM (inactive) in experiment [6]. Further, the GI50 in [7] is 4.02 µM (inactive); in [8], 1.67 µM (inactive); in experiment [9], 2.65 µM (inactive); in [11] it was 2.33 µM (inactive); in experiment [12], 1.22 µM (inactive); in [13] it was 2.72 µM (inactive). The GI50 was 2.79 µM (inactive) in experiment [14]; 12.1 µM (inactive) in experiment [15]; 2.02 µM (inactive) in [16]; 9.12 µM (inactive) in experiment [17]; 2.13 µM (inactive) in experiment [18]; 1.58 µM (inactive) in experiment [19].

As for `CCCCCCCCCCCCCCCC(=O)N[C@H]1CCc2cc(OC)c(OC)c(OC)c2-c2ccc(SC)c(=O)cc21`, the GI50 in experiment [1] was 1.67 µM (inactive); in [2], 0.253 µM (active); in experiment [3] it was 0.325 µM (active); in experiment [4], 0.294 µM (active); in [5], 0.5 µM (active); in experiment [6], 21.1 µM (inactive). Besides, the GI50 in experiment [7] is 0.54 µM (active); in experiment [8] it was 0.45 µM (active); in [9] it was 2.58 µM (inactive); in experiment [11] it was 1.46 µM (inactive); in [12] it was 3.64 µM (inactive); in experiment [13] it was 0.458 µM (active). Besides, the GI50 in experiment [14] is 0.279 µM (active); in [15], 0.29 µM (active); in experiment [16], 0.187 µM (active); in [17], 0.492 µM (active); in [18], 3.02 µM (inactive); in [19], 1.23 µM (inactive).
